In patent US20200331904A1, “3-AMINO-[1,2,4]-TRIAZOLE DERIVATIVES AND THEIR USE FOR CONTROLLING UNDESIRED PLANT GROWTH” (Bayer CropScience Aktiengesellschaft, priority 2017, published 2020):

Legend:
Type in all cases: in vivo
Matricaria inodora = assay: Pre-emergence herbicidal efficacy, MATIN
From the text: (§1) C.1 Pre-Emergence Herbicidal Action and Crop Plant Compatibility
(§2) Seeds of monocotyledonous and dicotyledonous weed plants and crop plants are placed in plastic or organic planting pots and covered with soil. The compounds of the invention, formulated in the form of wettable powders (WP) or as emulsion concentrates (EC), are then applied onto the surface of the covering soil as aqueous suspension or emulsion with addition of 0.5% additive at a water application rate of […] (converted). After the treatment, the pots are placed in a greenhouse and kept under good growth conditions for the trial plants. After about 3 weeks, the effect of the preparations is scored visually in comparison with untreated controls as percentages. For example, 100% activity=the plants have died, 0% activity=like control plants.
(§3) ABUTH: Abutilon theophrasti ALOMY: Alopecurus myosuroides AMARE: Amaranthus retroflexus AVEFA: Avena fatua CYPES: Cyperus esculentus ECHCG: Echinochloa crus-galli LOLMU: Lolium multiflorum MATIN: Matricaria inodora PHBPU: Ipomoea purpurea POLCO: Polygonum convolvulus SETVI: Setaria viridis STEME: Stellaria media VERPE: Veronica persica VTOTR: Viola tricolor

Stellaria media = assay: Pre-emergence herbicidal efficacy, STEME
From the text: as §1, §2, §3

Viola tricolor = assay: Pre-emergence herbicidal efficacy, VIOTR
From the text: as §1, §2, §3

Amaranthus retroflexus = assay: Pre-emergence herbicidal efficacy, AMARE; conditions: Table B2, application rate 320 g/ha, scored visually after about 3 weeks vs untreated controls
From the text: as §1, §2, §3

Veronica persica = assay: Pre-emergence herbicidal efficacy, VERPE; conditions: Table B2, application rate 320 g/ha, scored visually after about 3 weeks vs untreated controls
From the text: as §1, §2, §3

[1] = application rate 320 g/ha, scored visually after about 3 weeks
[2] = Table B2, application rate 320 g/ha, scored visually after about 3 weeks vs untreated controls

Row | Structure (SMILES) | Herbicidal efficacy against MATIN (Matricaria inodora; [1]) [%] | Herbicidal efficacy against STEME (Stellaria media; [1]) [%] | Herbicidal efficacy against VIOTR (Viola tricolor; [1]) [%] | Herbicidal efficacy against AMARE (Amaranthus retroflexus) [%] | Herbicidal efficacy against MATIN (Matricaria inodora; [2]) [%] | Herbicidal efficacy against STEME (Stellaria media; [2]) [%] | Herbicidal efficacy against VIOTR (Viola tricolor; [2]) [%] | Herbicidal efficacy against VERPE (Veronica persica) [%]
1 | c1ccc2c(c1)OCCC2Nc1nc2n(n1)CCCS2 (racemic) [Example I-204] | 100 | 100 | – | – | – | – | – | –
2 | c1ccc2c(c1)CCCC2Nc1nc2n(n1)CCCS2 (racemic) [Example I-209] | 100 | 100 | 100 | – | – | – | – | –
3 | O=C(C1CC1)N1CCn2nc(NC3CCCc4ccccc43)nc2C1 (stereo not drawn) [Example I-060] | 100 | 100 | 90 | – | – | – | – | –
4 | CC(=O)N1CCn2nc(NC3CCCc4ccccc43)nc2C1 (stereo not drawn) [Example I-061] | 100 | 100 | 100 | – | – | – | – | –
5 | O=S(=O)(Cc1ccccc1)N1CCn2nc(NC3CCOc4ccccc43)nc2C1 (stereo not drawn) [Example I-076] | – | 90 | 100 | – | – | – | – | –
6 | O=S(=O)(Cc1ccccc1)N1CCn2nc(NC3CCCc4ccccc43)nc2C1 (stereo not drawn) [Example I-078] | 70 | 90 | 100 | – | – | – | – | –
7 | CC(C)S(=O)(=O)N1CCn2nc(NC3CCCc4ccccc43)nc2C1 (stereo not drawn) [Example I-094] | 100 | 100 | 100 | – | – | – | – | –
8 | CS(=O)(=O)N1CCn2nc(NC3CCCc4ccccc43)nc2C1 (stereo not drawn) [Example I-097] | 100 | 100 | 100 | – | – | – | – | –
9 | Cc1ccc2c(c1)[C@H](Nc1nc3n(n1)CCNC3)CCC2 [Example I-157] | 80 | 100 | 100 | – | – | – | – | –
10 | CC(=O)N1CCn2nc(N[C@@H]3CCc4ccccc43)nc2C1 [Example I-158] | 90 | 100 | 100 | – | – | – | – | –
11 | O=C(C1CC1)N1CCn2nc(N[C@@H]3CCc4ccccc43)nc2C1 [Example I-160] | 90 | 100 | 100 | – | – | – | – | –
12 | O=C(c1ccccc1)N1CCn2nc(N[C@@H]3CCCc4ccccc43)nc2C1 [Example I-164] | 90 | 100 | 100 | – | – | – | – | –
13 | Cc1ccc2c(c1)C(Nc1nc3n(n1)CCN(C(=O)c1ccccc1)C3)C(C)C2 (stereo not drawn) [Example I-166] | 90 | 100 | 100 | – | – | – | – | –
14 | Cc1ccc2c(c1)C(Nc1nc3n(n1)CCN(C(=O)c1cccc(C(F)(F)F)c1)C3)C(C)C2 (stereo not drawn) [Example I-168] | 80 | 90 | 100 | – | – | – | – | –
15 | Cc1ccc2c(c1)C(Nc1nc3n(n1)CCN(C(=O)c1ccccc1Cl)C3)C(C)C2 (stereo not drawn) [Example I-169] | 90 | 100 | 100 | – | – | – | – | –
16 | Cc1ccc2c(c1)C(Nc1nc3n(n1)CCN(C(=O)C1CCCCC1)C3)C(C)C2 (stereo not drawn) [Example I-172] | 90 | 100 | 100 | – | – | – | – | –
17 | Cc1ccc2c(c1)[C@H](Nc1nc3n(n1)CCN(C(=O)c1ccccc1)C3)CC2 [Example I-174] | 90 | 100 | 100 | – | – | – | – | –
18 | Cc1ccc2c(c1)[C@H](Nc1nc3n(n1)CCN(C(=O)c1cccc(C(F)(F)F)c1)C3)CC2 [Example I-176] | 80 | 80 | 90 | – | – | – | – | –
19 | Cc1ccc2c(c1)[C@H](Nc1nc3n(n1)CCN(C(=O)c1ccccc1Cl)C3)CC2 [Example I-177] | 90 | 100 | 100 | – | – | – | – | –
20 | Cc1ccc2c(c1)[C@H](Nc1nc3n(n1)CCN(C(=O)c1cccc(Cl)c1)C3)CC2 [Example I-178] | 70 | 100 | 100 | – | – | – | – | –
21 | Cc1ccc2c(c1)[C@H](Nc1nc3n(n1)CCN(C(=O)c1ccc(Cl)cc1)C3)CC2 [Example I-179] | 90 | 100 | 70 | – | – | – | – | –
22 | Cc1ccc2c(c1)[C@H](Nc1nc3n(n1)CCN(C(=O)c1ccccc1)C3)CCC2 [Example I-181] | 100 | 100 | 100 | – | – | – | – | –

Row | Structure (SMILES) | Herbicidal efficacy against MATIN (Matricaria inodora; [1]) [%] | Herbicidal efficacy against STEME (Stellaria media; [1]) [%] | Herbicidal efficacy against VIOTR (Viola tricolor; [1]) [%] | Herbicidal efficacy against AMARE (Amaranthus retroflexus) [%] | Herbicidal efficacy against MATIN (Matricaria inodora; [2]) [%] | Herbicidal efficacy against STEME (Stellaria media; [2]) [%] | Herbicidal efficacy against VIOTR (Viola tricolor; [2]) [%] | Herbicidal efficacy against VERPE (Veronica persica) [%]
23 | Cc1ccc2c(c1)[C@H](Nc1nc3n(n1)CCN(C(=O)c1cccc(C(F)(F)F)c1)C3)CCC2 [Example I-183] | 90 | 100 | 90 | – | – | – | – | –
24 | Cc1ccc2c(c1)[C@H](Nc1nc3n(n1)CCN(C(=O)c1ccccc1Cl)C3)CCC2 [Example I-184] | 90 | 100 | 100 | – | – | – | – | –
25 | Cc1ccc2c(c1)[C@H](Nc1nc3n(n1)CCN(C(=O)c1cccc(Cl)c1)C3)CCC2 [Example I-185] | 90 | 100 | 100 | – | – | – | – | –
26 | Cc1ccc2c(c1)[C@H](Nc1nc3n(n1)CCN(C(=O)c1ccc(Cl)cc1)C3)CCC2 [Example I-186] | 80 | 100 | 100 | – | – | – | – | –
27 | c1ccc2c(c1)OCCC2Nc1nc2n(n1)CCCCS2 (stereo not drawn) [Example I-211] | 100 | 100 | 100 | – | – | – | – | –
28 | c1ccc2c(c1)CCC2Nc1nc2n(n1)CCCCS2 (stereo not drawn) [Example I-212] | 100 | 100 | 100 | – | – | – | – | –
29 | c1ccc2c(c1)CCCC2Nc1nc2n(n1)CCCCS2 (stereo not drawn) [Example I-216] | 100 | 100 | 100 | – | – | – | – | –
30 | O=C1CCn2nc(NC3CCc4ccccc43)nc2N1CC1CCCCC1 (stereo not drawn) [Example I-223] | 90 | 100 | 90 | – | – | – | – | –
31 | O=C1CCn2nc(NC3CCCc4ccccc43)nc2N1CC1CC1 (stereo not drawn) [Example I-228] | 100 | 100 | 100 | – | – | – | – | –
32 | O=S1(=O)CCCCn2nc(NC3CCc4ccccc43)nc21 (stereo not drawn) [Example I-236] | 100 | 100 | 100 | – | – | – | – | –
33 | O=S1(=O)CCCn2nc(NC3CCOc4ccccc43)nc21 (stereo not drawn) [Example I-242] | 100 | 80 | – | – | – | – | – | –
34 | O=S1(=O)CCCn2nc(NC3CCCc4ccccc43)nc21 (stereo not drawn) [Example I-252] | 100 | 100 | – | – | – | – | – | –
35 | O=C1CCn2nc(NC3CCOc4ccccc43)nc2N1CC1CCCCC1 (stereo not drawn) [Example I-255] | – | 90 | 100 | – | – | – | – | –
36 | CC(C)N1C(=O)CCn2nc(NC3CCCc4ccccc43)nc21 (stereo not drawn) [Example I-262] | – | 100 | 100 | – | – | – | – | –
37 | O=C1CCn2nc(NC3CCCc4ccccc43)nc2N1CC1CCCCC1 (stereo not drawn) [Example I-271] | 90 | 90 | 90 | – | – | – | – | –
38 | CS(=O)(=O)N1CCCn2nc(NC3CCCc4ccccc43)nc21 (stereo not drawn) [Example I-305] | 100 | 100 | 100 | – | – | – | – | –
39 | Cc1ccc2c(c1)C(Nc1nc3n(n1)CCC(=O)N3Cc1ccccc1)CCC2 (stereo not drawn) [Example I-315] | – | – | – | 80 | 80 | 90 | 100 | 100
40 | CC(=O)N1CCCn2nc(NC3CCc4ccc(C)cc43)nc21 (stereo not drawn) [Example I-320] | – | – | – | 90 | 100 | 100 | 100 | 100
41 | Cc1ccc2c(c1)C(Nc1nc3n(n1)CCCN3S(=O)(=O)C(C)C)CCC2 (stereo not drawn) [Example I-325] | – | 100 | – | – | – | – | – | –
42 | Cc1ccc2c(c1)C(Nc1nc3n(n1)CCCN3S(=O)(=O)C1CC1)CC2 (stereo not drawn) [Example I-336] | – | – | – | 100 | 100 | 100 | 100 | 100
43 | CCN1CCn2nc(N[C@@H]3CCCc4ccc(C)cc43)nc2C1 [Example I-343] | – | – | – | 100 | 100 | 100 | 100 | 100
